# Measurements from patent US8729074B2, “Inhibitors of PI3 kinase” (Amgen Inc., priority 2009, dated 2014).
# What was measured:
# [1] = tested on: phosphorylation of Akt at Serine 473 in U87 MG cells; test: pAkt AlphaScreen (U87 cell); type: cell-based; settings: Homo sapiens, U-87 MG, 2 h; pAkt Ser473, U87 MG cells, compound two hours; average if run more than once
# Protocol: pAkt AlphaScreen (U87 Cell)
# The pAkt AlphaScreen® assay (PerkinElmer, Waltham, Mass.) determines whether there is phosphorylation of Akt at Serine 473 by recruitment of a phosphospecific antibody. This assay was performed using U87 MG cells. The U87 growth media consists of MEM (Gibco, Carlsbad, Calif.) supplemented with 10% FBS (Gibco), 1× Non-Essential Amino Acids (Gibco) and 1× Penicillin/Streptomycin/Glutamine (Gibco). The cells were maintained weekly using 0.05% Trypsin (Gibco) and replated in 150 mm TC—Treated Culture Dishes (Corning, Corning, N.Y.).
# The first day of the assay, the adherent cells were trypsinized, media was added to the loose cells and cells were mixed to a homogenous mixture. 0.5 ml of the homogenous mixture was counted on the Beckman Coulter® Vi-CELL™ XR (Fullerton, Calif.). 50 frames of cells were counted and the number of viable cells was determined. The cells were then diluted to 0.25 million cells per ml, and centrifuged at 200 rcf for 5 minutes. The media was removed and the cells were reconstituted in fresh media for plating. The cells were plated at 20 μl per well on the PerkinElmer® Flexprop PLUS in Low Volume 384 Well White Tissue Culture Plates (Corning) with a final cell density of 5K cells per well. The plates were incubated overnight at 37° Celsius, 5% CO2.
# On the second day, the compound plates were prepared, the cells were treated with compound and the pAkt reaction mix was added to the cell lysate. 384 well compound plates were prepared containing 1 μl of compound per well starting at 5 mM and diluted 1:2 across the row, resulting in a 22 well serial dilution. 39 μl of growth media was added to the compound plate in rows 1-22 using the PerkinElmer® Flexprop PLUS resulting in a DMSO concentration of 2.5%. The cell plates and diluted compound plates were put onto the VELOCITY11™ VPREP™ 384 ST where the compound plate was mixed and 5 μl of serially diluted compound or controls was added to the cell plate. The final concentration of the compounds was 25 μM serially diluted to 11.9 pM in 0.5% DMSO. The cell plates were then incubated with compound for two hours at 37° Celsius, 5% CO2. After two hours, the media in the cell plates was aspirated using the BioTek® ELx405HT plate washer (Winooski, Vt.) removing the majority of media and compound without disturbing the adherent U87 cells. The following assay reagents are components of the SureFire® Akt (Ser 473) Phosphorylation 50K Point Kit (TGR BioSciences, Adelaide, Australia) and an IgG Detection Kit (PerkinElmer, Waltham, Mass.). 5 μl of 1× Lysis Buffer was added to each well using the PerkinElmer® Flexprop PLUS. The plates were then incubated at room temperature on a shaker for ten minutes. The AlphaScreen® reaction was prepared under low light conditions (subdued or green light) including p-Akt (Ser 473) Reaction Buffer, Dilution Buffer, Activation Buffer, Acceptor Beads and Donor Beads at a ratio of 40:20:10:1:1 respectively. The AlphaScreen® reaction was added to the cell lysate at 6 μl per well using the PerkinElmer® Flexprop PLUS. The plates were placed in a humid environment to reduce edge effects and incubated overnight at room temperature with restricted air flow in the dark.
# On the final day of the experiment, the plates were read on the PerkinElmer® EnVision™ 2103 Multilable Reader using the standard AlphaScreen® readout. The POC is calculated and the data is analyzed to report the IC50 IP for pAkt at Serine 473.
# Activity data for the compounds tested in the PI3K cell based Akt assay is provided in Table 1 under the column heading U87
# [2] = biological target: PI3Kα (Homo sapiens (Human), UniProt P42336); test: In vitro PI3 kinase enzyme assay (PI3K ATPLoss); type: biochemical; settings: average if run more than once
# Chain of PI3Kα (P42336 whole entry): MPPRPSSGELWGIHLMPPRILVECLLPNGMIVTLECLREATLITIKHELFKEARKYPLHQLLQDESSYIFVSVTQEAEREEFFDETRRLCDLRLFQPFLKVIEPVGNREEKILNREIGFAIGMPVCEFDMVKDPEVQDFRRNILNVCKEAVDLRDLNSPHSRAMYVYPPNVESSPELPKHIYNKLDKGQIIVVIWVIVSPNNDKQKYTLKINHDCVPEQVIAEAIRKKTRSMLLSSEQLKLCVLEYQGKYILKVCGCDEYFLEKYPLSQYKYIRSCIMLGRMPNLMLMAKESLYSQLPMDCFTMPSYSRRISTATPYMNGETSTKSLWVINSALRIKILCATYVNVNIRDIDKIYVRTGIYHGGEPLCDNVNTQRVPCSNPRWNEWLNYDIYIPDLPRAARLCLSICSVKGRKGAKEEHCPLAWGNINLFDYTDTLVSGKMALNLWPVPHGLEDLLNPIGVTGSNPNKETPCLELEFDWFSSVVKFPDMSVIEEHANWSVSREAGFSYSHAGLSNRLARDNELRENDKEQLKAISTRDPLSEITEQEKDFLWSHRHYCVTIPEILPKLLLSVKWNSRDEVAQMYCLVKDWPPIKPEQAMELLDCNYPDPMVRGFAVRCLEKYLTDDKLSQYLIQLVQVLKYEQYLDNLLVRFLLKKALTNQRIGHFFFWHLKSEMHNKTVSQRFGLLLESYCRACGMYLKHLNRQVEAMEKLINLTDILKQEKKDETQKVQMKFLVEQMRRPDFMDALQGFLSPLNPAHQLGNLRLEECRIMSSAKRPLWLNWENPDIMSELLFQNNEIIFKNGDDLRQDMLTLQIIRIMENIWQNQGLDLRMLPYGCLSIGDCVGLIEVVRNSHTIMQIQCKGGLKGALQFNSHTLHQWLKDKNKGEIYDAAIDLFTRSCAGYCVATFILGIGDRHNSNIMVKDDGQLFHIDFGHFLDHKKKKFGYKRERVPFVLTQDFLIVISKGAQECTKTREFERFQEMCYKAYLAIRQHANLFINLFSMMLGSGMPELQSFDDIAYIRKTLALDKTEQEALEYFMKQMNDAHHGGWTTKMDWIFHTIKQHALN
# Chain of PI3Kα (P27986 whole entry partner): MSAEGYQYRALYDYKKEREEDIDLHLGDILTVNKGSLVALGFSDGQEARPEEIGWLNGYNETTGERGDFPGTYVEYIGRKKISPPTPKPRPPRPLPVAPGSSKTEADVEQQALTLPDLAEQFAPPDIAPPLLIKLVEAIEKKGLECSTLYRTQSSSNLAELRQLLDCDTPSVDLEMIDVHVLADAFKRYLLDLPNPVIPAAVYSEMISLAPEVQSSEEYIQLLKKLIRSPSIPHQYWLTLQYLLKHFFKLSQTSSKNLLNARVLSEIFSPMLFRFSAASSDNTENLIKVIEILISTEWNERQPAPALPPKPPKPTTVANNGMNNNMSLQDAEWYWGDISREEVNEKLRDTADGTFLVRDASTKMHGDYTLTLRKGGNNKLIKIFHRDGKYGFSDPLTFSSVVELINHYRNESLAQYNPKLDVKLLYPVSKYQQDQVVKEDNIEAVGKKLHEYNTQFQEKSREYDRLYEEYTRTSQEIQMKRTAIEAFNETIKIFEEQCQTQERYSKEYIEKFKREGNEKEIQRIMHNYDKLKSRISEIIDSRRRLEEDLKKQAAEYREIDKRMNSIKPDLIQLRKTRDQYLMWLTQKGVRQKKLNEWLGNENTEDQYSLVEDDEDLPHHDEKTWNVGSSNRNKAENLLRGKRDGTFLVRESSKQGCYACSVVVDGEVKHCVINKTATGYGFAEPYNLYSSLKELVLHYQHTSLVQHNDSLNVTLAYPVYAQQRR
# Protocol: Recombinant Expression of PI3K Enzymes
# Full length p110 subunits of PI3K α, β and δ, N-terminally labeled with polyHis tag, can be co-expressed with p85 with Baculo virus expression vectors in sf9 insect cells. P110/p85 heterodimers can be purified by sequential Ni-NTA, Q-HP, Superdex-100 chromatography. Purified α, β and δ isozymes can be stored at −20° C. in 20 mM Tris, pH 8, 0.2M NaCl, 50% glycerol, 5 mM DTT, 2 mM Na cholate. […] The γ isozyme can be purified by sequential Ni-NTA, Superdex-200, Q-HP chromatography. The γ isozyme can be stored frozen at −80° C. in NaH2PO4, pH 8, 0.2M NaCl, 1% ethylene glycol, 2 mM β-mercaptoethanol.
# In Vitro PI3 Kinase Enzyme Assays (PI3K ATPLoss)
# PI3K enzyme assays (alpha, beta, delta and gamma) can be performed in 25 μL with the above final concentrations of components in white polyproplyene plates. Phosphatidyl inositol phosphoacceptor, PtdIns(4,5)P2 (e.g., P4508) can be obtained from Echelon Biosciences, Salt Lake City, Utah. […] Test compounds can be dissolved in DMSO and diluted with three-fold serial dilutions. The compound in DMSO (1 μL) may be added per test well, and the inhibition relative to reactions containing no compound, with and without enzyme can be determined. After assay incubation at RT, the reaction can be stopped and residual ATP can be determined by addition of an equal volume of a commercial ATP bioluminescence kit (Perkin Elmer EasyLite, Perkin Elmer, Waltham, Mass.) according to the manufacturer's instructions, and detected using an Analyst GT luminometer.
Structure (SMILES),IC50 [1],IC50 [2]
"CN(C)S(=O)(=O)Nc1cc(-c2cnc3ccc(-c4ccncc4)cn23)cnc1Cl [Example 18, N-(2-Chloro-5-(6-(pyridin-4-yl)imidazo[1,2-a]pyridin-3-yl)pyridin-3-yl)dimethylaminosulfonamide]",7 nM,
"COc1cc(-c2cnc3ccc(N4CCOCC4)cn23)cnc1OC [Example 16, 3-(5,6-Dimethoxy-3-pyridinyl)-6-(4-morpholinyl)imidazo[1,2-a]pyridine]",3990 nM,
"O=S(=O)(Nc1cc(-c2cnc3ccc(Br)cn23)cnc1Cl)c1ccc(F)cc1 [Example 6, N-(5-(6-Bromoimidazo[1,2-a]pyridin-3-yl)-2-chloro-3-pyridinyl)-4-fluorobenzenesulfonamide]",208 nM,14 nM
"CS(=O)(=O)Nc1cc(-c2cnc3cc(-c4cccnc4)ccn23)cnc1Cl [Example 20, N-(2-Chloro-5-(7-(pyridin-3-yl)imidazo[1,2-a]pyridin-3-yl)pyridin-3-yl)methanesulfonamide]",32 nM,
"CN(C)S(=O)(=O)Nc1cc(-c2cnc3cc(-c4ccncc4)ccn23)cnc1Cl [Example 21, N′-(2-Chloro-5-(7-(4-pyridinyl)imidazo[1,2-a]pyridin-3-yl)-3-pyridinyl)-N,N-dimethylsulfamide]",281 nM,
"O=S(=O)(Nc1cc(-c2cnc3ccc(-c4ccncc4)cn23)cnc1Cl)c1ccc(F)cc1 [Example 7, N-(2-Chloro-5-(6-(4-pyridinyl)imidazo[1,2-a]pyridin-3-yl)-3-pyridinyl)-4-fluorobenzenesulfonamide]",42 nM,5 nM
"CN(C)S(=O)(=O)Nc1cc(-c2cnc3ccc(-c4ccnc(C(F)(F)F)c4)cn23)cnc1Cl [Example 19, N-(2-Chloro-5-(6-(2-(trifluoromethyl)pyridin-4-yl)imidazo[1,2-a]pyridin-3-yl)pyridin-3-yl)dimethylaminosulfonamid]",9 nM,
"O=S(=O)(Nc1cc(-c2cnc3ccc(Cl)nn23)cnc1Cl)c1ccc(F)cc1 [Example 25, N-(2-Chloro-5-(6-chloroimidazo[1,2-b]pyridazin-3-yl)pyridin-3-yl)-4-fluorobenzenesulfonamide]",,47 nM
"O=S(=O)(Nc1cc(-c2cnc3ccc(-c4cccnc4)cn23)cnc1Cl)c1ccc(F)cc1 [Example 8, N-(2-Chloro-5-(6-(3-pyridinyl)imidazo[1,2-a]pyridin-3-yl)-3-pyridinyl)-4-fluorobenzenesulfonamide]",83 nM,4 nM
"COc1cc(-c2cnc3ccccn23)cnc1OC [Example 10, 3-(5,6-Dimethoxy-3-pyridinyl)imidazo[1,2-a]pyridine]",> 25000 nM,15700 nM
"CN(C)S(=O)(=O)Nc1cc(-c2cnc3cc(-c4cccnc4)ccn23)cnc1Cl [Example 22, N′-(2-Chloro-5-(7-(3-pyridinyl)imidazo[1,2-a]pyridin-3-yl)-3-pyridinyl)-N,N-dimethylsulfamide]",168 nM,
"COc1cc(-c2cnc3ccc(Br)cn23)cnc1OC [Example 11, 6-Bromo-3-(5,6-dimethoxy-3-pyridinyl)imidazo[1,2-a]pyridine]",4980 nM,1500 nM
"Cc1nc2ccc(Br)cn2c1-c1cnc(Cl)c(NS(=O)(=O)c2ccc(F)cc2)c1 [Example 5, N-(5-(6-Bromo-2-methylimidazo[1,2-a]pyridin-3-yl)-2-chloro-3-pyridinyl)-4-fluorobenzenesulfonamide]",1220 nM,16 nM
"O=S(=O)(Nc1cc(-c2cnc3ccccn23)cnc1Cl)c1ccc(F)cc1 [Example 3, N-(2-Chloro-5-imidazo[1,2-a]pyridin-3-yl-3-pyridinyl)-4-fluorobenzenesulfonamide]",,30 nM
"Cc1cc2ncc(-c3cnc(Cl)c(NS(=O)(=O)N(C)C)c3)n2cc1-c1ccncc1 [Example 23, N′-(2-Chloro-5-(7-methyl-6-(4-pyridinyl)imidazo[1,2-a]pyridin-3-yl)-3-pyridinyl)-N,N-dimethylsulfamide]",8 nM,
"Cc1ccn2c(-c3cnc(Cl)c(NS(=O)(=O)c4ccc(F)cc4)c3)cnc2c1 [Example 4, N-(2-Chloro-5-(7-methylimidazo[1,2-a]pyridin-3-yl)-3-pyridinyl)-4-fluorobenzenesulfonamide]",,13 nM
"COc1cc(-c2cnc3ccc(N4CCOC4=O)cn23)cnc1OC [Example 13, 3-(3-(5,6-Dimethoxy-3-pyridinyl)imidazo[1,2-a]pyridin-6-yl)-1,3-oxazolidin-2-one]",> 25000 nM,4670 nM
"COc1cc(-c2cnc3ccc(-c4ccncc4)cn23)cnc1OC [Example 12, 3-(5,6-Dimethoxy-3-pyridinyl)-6-(4-pyridinyl)imidazo[1,2-a]pyridine]",2190 nM,861 nM
"O=S(=O)(Nc1cc(-c2cnc3ccc(N4CCOCC4)cn23)cnc1Cl)c1ccc(F)cc1 [Example 9, N-(2-Chloro-5-(6-(4-morpholinyl)imidazo[1,2-a]pyridin-3-yl)-3-pyridinyl)-4-fluorobenzenesulfonamide]",76 nM,6 nM
